This passage reports EC50 results from patent US20100292231A1, “Indazole Compounds for Treating Inflammatory Disorders, Demyelinating Disorders and Cancers” (priority 2007, published 2010).

Holding throughout (assay): SelectScreen kinase specificity survey
Common to all, as to format: biochemical
Settings in all cases: estimated, abridged dose response curve, read-out: Kinase inhibitory activity EC50

Assay [1] has as its target T1, AMPK A2/B1/G1 (Homo sapiens, UniProt P54619+P54646+Q9Y478).
T1 construct: purchased Invitrogen, Inc. (SelectScreen platform)
The essentials: (§1)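 ATP held at 100 micromolar; every kinase had its own substrate and optical reporter. The compound was dosed in 5 increments, and a 4-parameter Hill curve gave the EC50 estimate.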

In assay [2] the target is T2, FLT3 D835Y (Homo sapiens, UniProt P36888, D835Y).
T2 construct: purchased Invitrogen (SelectScreen platform)
T2 sequence (P36888 27-993 D835Y): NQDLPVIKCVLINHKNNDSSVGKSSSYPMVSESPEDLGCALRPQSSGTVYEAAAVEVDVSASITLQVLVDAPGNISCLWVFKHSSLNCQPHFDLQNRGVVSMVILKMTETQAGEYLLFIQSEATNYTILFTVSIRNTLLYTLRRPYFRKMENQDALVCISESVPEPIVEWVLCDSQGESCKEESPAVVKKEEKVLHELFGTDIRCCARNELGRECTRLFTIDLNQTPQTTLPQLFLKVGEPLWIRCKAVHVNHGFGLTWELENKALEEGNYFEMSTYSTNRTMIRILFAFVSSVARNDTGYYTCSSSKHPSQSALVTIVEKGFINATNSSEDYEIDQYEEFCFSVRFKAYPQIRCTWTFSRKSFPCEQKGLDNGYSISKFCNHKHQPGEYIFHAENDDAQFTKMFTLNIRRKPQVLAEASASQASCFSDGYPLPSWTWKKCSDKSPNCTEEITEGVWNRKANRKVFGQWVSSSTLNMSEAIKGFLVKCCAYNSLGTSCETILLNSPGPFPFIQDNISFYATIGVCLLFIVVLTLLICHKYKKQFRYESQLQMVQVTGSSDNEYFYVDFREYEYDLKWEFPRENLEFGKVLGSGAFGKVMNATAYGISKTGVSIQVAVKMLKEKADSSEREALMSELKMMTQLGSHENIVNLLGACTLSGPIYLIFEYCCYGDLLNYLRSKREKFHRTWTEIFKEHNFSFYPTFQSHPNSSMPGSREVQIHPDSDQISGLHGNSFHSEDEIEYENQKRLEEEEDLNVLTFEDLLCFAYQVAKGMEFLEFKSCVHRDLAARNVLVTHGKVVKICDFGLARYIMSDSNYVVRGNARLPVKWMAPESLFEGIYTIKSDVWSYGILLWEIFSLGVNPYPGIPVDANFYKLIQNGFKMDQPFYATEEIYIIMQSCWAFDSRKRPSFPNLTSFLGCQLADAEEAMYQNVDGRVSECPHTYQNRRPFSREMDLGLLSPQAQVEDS
The essentials: as §1

Assay [3] deals with T3, YES1 (YES) (Homo sapiens, UniProt P07947).
T3 construct: purchased Invitrogen (SelectScreen)
Put shortly:
as §1

Assay [4] has as its target T4, PLK2 (Homo sapiens, UniProt Q9NYY3).
T4 construct: purchased Invitrogen, Inc. (SelectScreen service)
Put shortly: as §1

Assay [5] deals with T5, TEK (Tie2) (Homo sapiens, UniProt Q02763).
T5 construct: purchased Invitrogen (SelectScreen)
The essentials: as §1

Assay [6] concerns the target T6, CSNK1G2 (CK1 gamma 2) (Homo sapiens, UniProt P78368).
T6 construct: purchased Invitrogen (SelectScreen platform)
Put shortly:
as §1

For assay [7], the target named is T7, PRKCN (PKD3, PRKD3) (Homo sapiens, UniProt O94806).
T7 construct: purchased Invitrogen, Inc. (SelectScreen platform)
Put shortly:
as §1

Assay [8] addresses T8, NEK4 (Homo sapiens, UniProt P51957).
T8 construct: purchased Invitrogen, Inc. (SelectScreen service)
The essentials: as §1

In assay [9] the target is T9, GSK3A (GSK3 alpha) (Homo sapiens, UniProt P49840).
T9 construct: purchased Invitrogen (SelectScreen platform)
The essentials: as §1

Assay [10] deals with T10, AKT2 (PKB beta) (Homo sapiens, UniProt P31751).
T10 construct: purchased Invitrogen (SelectScreen platform)
The essentials:
as §1

The target in assay [11] is T11, FRK (PTK5) (Homo sapiens, UniProt P42685).
T11 construct: purchased Invitrogen (SelectScreen)
The essentials:
as §1

The target in assay [12] is T12, SYK (Homo sapiens, UniProt P43405).
T12 construct: purchased Invitrogen (SelectScreen)
The essentials: as §1

Assay [13] concerns the target T13, PDGFRB (PDGFR beta) (Homo sapiens, UniProt P09619).
T13 construct: purchased Invitrogen (SelectScreen platform)
The essentials: as §1

Assay [14] has as its target T14, ACVR1B (ALK4) (Homo sapiens, UniProt P36896).
T14 construct: purchased Invitrogen, Inc. (SelectScreen platform)
Put shortly:
as §1

Structures are written as SMILES.

T9 sequence (P49840 whole entry): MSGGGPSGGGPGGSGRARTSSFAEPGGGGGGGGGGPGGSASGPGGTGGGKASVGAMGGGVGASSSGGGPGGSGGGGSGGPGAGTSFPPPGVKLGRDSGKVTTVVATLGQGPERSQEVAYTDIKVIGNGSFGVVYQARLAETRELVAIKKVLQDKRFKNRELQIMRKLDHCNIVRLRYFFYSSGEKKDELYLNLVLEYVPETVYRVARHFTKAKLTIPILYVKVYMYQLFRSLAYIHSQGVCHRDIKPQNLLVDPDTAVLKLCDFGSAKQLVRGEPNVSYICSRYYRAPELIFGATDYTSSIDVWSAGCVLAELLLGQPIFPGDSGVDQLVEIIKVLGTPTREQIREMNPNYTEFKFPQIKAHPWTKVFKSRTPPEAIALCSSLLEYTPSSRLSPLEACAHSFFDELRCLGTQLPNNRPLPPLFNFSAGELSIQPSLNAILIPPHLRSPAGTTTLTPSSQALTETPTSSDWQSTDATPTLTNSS
T14 sequence (P36896 24-505): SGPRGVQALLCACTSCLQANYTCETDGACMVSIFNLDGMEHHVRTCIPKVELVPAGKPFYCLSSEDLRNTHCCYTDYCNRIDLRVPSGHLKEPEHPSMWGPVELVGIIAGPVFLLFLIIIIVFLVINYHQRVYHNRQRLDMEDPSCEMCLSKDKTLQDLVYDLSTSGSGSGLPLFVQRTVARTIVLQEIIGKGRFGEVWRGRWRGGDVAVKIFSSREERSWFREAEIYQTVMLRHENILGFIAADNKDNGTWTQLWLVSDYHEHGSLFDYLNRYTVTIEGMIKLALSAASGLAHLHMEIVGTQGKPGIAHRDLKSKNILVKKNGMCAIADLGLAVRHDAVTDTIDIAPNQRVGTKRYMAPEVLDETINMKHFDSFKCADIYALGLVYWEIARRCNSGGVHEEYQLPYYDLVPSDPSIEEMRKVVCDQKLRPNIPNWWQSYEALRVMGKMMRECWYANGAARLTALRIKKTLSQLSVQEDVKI
T8 sequence (P51957 whole entry): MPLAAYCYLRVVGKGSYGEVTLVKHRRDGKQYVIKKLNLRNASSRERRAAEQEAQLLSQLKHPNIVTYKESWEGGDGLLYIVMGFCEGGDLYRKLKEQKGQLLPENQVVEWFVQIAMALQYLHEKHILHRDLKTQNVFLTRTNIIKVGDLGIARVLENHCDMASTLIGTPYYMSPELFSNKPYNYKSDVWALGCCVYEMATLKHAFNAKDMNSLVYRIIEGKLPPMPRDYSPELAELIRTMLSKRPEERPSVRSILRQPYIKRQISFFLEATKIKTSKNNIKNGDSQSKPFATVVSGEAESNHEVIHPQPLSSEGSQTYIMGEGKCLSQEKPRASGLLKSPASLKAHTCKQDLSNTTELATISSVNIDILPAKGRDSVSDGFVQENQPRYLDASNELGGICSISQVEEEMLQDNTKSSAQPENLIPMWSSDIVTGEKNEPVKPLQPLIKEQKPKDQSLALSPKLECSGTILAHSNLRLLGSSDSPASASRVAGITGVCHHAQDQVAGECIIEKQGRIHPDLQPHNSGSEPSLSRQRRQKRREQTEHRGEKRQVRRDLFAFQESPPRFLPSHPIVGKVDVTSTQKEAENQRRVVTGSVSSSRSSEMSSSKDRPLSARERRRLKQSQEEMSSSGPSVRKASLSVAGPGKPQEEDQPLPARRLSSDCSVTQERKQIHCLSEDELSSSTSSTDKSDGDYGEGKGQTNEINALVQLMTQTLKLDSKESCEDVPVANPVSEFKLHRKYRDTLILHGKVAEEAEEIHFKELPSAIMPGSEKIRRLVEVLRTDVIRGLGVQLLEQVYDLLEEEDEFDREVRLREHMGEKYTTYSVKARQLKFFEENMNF
T3 sequence (P07947 whole entry): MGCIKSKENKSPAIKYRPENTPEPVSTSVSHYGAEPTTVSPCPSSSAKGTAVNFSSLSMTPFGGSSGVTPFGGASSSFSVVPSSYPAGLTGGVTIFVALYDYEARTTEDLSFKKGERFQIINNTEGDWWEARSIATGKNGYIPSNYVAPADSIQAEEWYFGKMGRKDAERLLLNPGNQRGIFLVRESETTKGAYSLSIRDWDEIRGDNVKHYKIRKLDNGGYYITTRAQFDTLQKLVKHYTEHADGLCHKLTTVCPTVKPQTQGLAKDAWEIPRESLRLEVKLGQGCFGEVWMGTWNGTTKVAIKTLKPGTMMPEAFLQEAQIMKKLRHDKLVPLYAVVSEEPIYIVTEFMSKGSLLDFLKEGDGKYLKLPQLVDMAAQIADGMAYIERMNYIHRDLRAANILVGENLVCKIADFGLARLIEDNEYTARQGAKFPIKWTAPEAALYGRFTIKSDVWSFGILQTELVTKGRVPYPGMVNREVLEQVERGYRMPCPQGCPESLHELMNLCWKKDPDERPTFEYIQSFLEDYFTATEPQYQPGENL
T4 sequence (Q9NYY3 whole entry): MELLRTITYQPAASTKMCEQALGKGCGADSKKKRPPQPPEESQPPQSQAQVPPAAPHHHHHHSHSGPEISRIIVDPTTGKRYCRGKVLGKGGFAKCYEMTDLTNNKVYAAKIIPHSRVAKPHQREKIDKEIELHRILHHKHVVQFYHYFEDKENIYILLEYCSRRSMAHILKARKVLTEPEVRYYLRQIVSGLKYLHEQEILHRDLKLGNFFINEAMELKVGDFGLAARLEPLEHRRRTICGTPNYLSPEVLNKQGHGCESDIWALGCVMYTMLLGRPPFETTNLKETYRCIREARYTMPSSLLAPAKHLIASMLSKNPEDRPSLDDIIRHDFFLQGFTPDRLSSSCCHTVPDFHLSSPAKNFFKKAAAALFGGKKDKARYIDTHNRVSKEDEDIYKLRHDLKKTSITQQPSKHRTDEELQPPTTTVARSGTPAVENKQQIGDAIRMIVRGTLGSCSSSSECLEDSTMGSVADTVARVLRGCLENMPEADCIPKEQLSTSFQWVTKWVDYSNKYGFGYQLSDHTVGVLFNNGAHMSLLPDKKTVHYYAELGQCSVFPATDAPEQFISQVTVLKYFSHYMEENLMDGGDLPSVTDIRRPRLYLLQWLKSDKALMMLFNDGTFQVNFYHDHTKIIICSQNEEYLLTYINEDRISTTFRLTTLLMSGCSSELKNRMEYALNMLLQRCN
T13 sequence (P09619 33-1106): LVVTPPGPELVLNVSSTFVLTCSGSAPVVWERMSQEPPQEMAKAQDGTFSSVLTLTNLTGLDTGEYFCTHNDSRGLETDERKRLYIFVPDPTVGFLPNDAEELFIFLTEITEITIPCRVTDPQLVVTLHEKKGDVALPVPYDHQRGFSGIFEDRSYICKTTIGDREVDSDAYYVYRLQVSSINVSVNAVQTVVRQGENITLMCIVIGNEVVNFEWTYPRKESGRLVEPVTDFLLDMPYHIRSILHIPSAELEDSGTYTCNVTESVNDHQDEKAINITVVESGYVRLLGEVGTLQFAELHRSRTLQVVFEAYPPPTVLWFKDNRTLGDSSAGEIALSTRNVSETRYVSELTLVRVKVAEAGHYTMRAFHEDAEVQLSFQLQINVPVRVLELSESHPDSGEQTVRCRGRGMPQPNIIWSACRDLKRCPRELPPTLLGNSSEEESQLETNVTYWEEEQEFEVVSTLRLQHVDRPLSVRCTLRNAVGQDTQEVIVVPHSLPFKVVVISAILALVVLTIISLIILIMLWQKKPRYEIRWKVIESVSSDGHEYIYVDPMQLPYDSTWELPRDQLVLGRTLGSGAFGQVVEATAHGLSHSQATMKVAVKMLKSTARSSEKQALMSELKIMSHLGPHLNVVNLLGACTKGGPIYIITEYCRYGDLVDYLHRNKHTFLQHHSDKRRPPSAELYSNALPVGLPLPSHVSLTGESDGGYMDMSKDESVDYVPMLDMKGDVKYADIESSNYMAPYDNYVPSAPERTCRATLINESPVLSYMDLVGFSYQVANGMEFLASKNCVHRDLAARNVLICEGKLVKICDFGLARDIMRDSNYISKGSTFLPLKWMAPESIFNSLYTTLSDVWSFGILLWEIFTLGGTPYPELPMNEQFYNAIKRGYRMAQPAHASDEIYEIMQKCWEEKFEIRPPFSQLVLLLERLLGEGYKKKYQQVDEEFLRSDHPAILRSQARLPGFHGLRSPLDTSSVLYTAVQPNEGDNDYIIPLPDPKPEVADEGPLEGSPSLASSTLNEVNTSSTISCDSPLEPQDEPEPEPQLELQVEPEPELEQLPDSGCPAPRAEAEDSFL
T11 sequence (P42685 whole entry): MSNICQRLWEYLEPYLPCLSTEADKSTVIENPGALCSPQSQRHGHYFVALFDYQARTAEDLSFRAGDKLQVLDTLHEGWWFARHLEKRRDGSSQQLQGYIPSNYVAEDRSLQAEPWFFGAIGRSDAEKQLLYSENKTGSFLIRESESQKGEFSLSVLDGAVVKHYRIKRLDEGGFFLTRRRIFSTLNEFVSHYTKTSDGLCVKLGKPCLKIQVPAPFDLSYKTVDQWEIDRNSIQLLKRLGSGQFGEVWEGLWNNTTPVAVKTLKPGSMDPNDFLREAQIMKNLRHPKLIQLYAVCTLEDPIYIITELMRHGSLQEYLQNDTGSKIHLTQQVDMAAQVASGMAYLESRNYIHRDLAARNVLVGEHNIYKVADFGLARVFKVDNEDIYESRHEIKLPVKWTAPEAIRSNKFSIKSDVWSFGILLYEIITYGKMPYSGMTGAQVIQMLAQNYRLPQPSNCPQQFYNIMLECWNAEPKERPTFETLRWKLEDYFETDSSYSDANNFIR
T6 sequence (P78368 whole entry): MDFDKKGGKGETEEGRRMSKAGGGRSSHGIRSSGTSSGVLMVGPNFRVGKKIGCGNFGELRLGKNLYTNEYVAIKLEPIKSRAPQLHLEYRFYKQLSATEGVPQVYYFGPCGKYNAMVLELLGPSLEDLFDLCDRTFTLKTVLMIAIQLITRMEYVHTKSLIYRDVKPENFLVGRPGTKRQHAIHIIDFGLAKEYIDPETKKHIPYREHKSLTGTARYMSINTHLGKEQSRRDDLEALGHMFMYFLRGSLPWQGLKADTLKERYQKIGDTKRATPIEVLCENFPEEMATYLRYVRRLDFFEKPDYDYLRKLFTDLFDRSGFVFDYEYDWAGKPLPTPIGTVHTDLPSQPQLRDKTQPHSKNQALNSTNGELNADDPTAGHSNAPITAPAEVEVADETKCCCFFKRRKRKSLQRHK

Broadly, the EC50 is the concentration needed to bring the measured effect to its halfway point. On to `CN(C)CCCNc1ccc2ncn3c4ccc5[nH]ncc5c4c(=O)c1c23` [Compound (IV)], for which the EC50 is 1.57 µM in [1]; 0.001 µM in assay [2]; 1.57 µM in assay [3]; over 5 µM in assay [4]; over 5 µM in assay [5]; over 5 µM in assay [6]. Moreover, the EC50 in [7] is 0.302 µM; in [8], over 5 µM; in [9] it was 3.62 µM; in [10] it was over 5 µM; in [11], 0.389 µM; in assay [12], over 5 µM. Further, the EC50 in assay [13] is 0.278 µM; in assay [14], over 5 µM.

With `CCN(CC)CCNc1ccc2ncn3c4ccc(O)cc4c(=O)c1c23` [Symadex, 5-(2-(diethylamino)ethylamino)-8-hydroxy-6H-imidazo[4,5,1-de]acridin-6-one, reference compound], the EC50 in assay [1] was 1.79 µM; in assay [2], 0.003 µM; in assay [3] it was over 5 µM; in [4], over 5 µM; in assay [5], over 5 µM; in assay [6] it was over 5 µM. Besides, the concentration giving a half-maximal response (EC50) was 0.221 µM in assay [7]; over 5 µM in assay [8]; over 5 µM in assay [9]; over 5 µM in [10]; 2.11 µM in [11]; 3.91 µM in assay [12]. The figures for the EC50 in assay [13] and in [14] were 1.79 µM and over 5 µM, respectively.
